Results published in patent US20090270413A1, “DI-T-BUTYLPHENYL PIPERAZINES AS CALCIUM CHANNEL BLOCKERS” (priority 2008, published 2009).
pIC50: −log10 of the molar value.

Assays:
Format in all cases: cell-based
[1] = biological target: T1, Cav3.2 (T-type channel alpha-1H) (Homo sapiens, UniProt O95180); experiment: T-type calcium channel voltage-clamp assay, Cav3.2; details: read-out: Cav 3.2 IC50
T1 construct: expressed in transfected cells; host or cells: HEK 293
Experimental: (§1) The T-type calcium channel blocking activity of the compounds of this invention may be readily determined using the methodology well known in the art described by Xia, et al., Assay and Drug Development Tech., 1 (5), 637-645 (2003).
(§2) In a typical experiment ion channel function from HEK 293 cells expressing the T-type channel alpha-1G, H, or I (CaV 3.1, 3.2, 3.3) is recorded to determine the activity of compounds in blocking the calcium current mediated by the T-type channel alpha-1G, H, or I (CaV 3.1, 3.2, 3.3). In this T-type calcium (Ca^2+) antagonist voltage-clamp assay calcium currents are elicited from the resting state of the human alpha-1G, H, or I (CaV 3.1, 3.2, 3.3) calcium channel as follows. Sequence information for T-type (Low-voltage activated) calcium channels are fully disclosed in e.g., U.S. Pat. No. 5,618,720, U.S. Pat. No. 5,686,241, U.S. Pat. No. 5,710,250,U.S. Pat. No. 5,726,035, U.S. Pat. No. 5,792,846, U.S. Pat. No. 5,846,757, U.S. Pat. No. 5,851,824, U.S. Pat. No. 5,874,236, U.S. Pat. No. 5,876,958, U.S. Pat. No. 6,013,474, U.S. Pat. No. 6,057,114, U.S. Pat. No. 6,096,514, WO 99/28342, and J. Neuroscience, 19 (6):1912-1921 (1999). Cells expressing the t-type channels were grown in H3D5 growth media which is comprised DMEM, 6% bovine calf serum (HYCLONE), 30 micromolar Verapamil, 200 microgram/ml Hygromycin B, 1× Penicillin/Streptomycin. Glass pipettes are pulled to a tip diameter of 1-2 micrometer on a pipette puller. The pipettes are filled with the intracellular solution and a chloridized silver wire is inserted along its length, which is then connected to the headstage of the voltage-clamp amplifier. Trypsinization buffer was 0.05% Trypsin, 0.53 mM EDTA. The extracellular recording solution consists of (mM): 130 mM NaCl, 4 mM KCl, 1 mM MgCl2, 2 mM CaCl2, 10 mM HEPES, 30 Glucose, pH 7.4. The internal solution consists of (mM): 135 mM CsMeSO4, 1 MgCl2, 10 CsCl, 5 EGTA, 10 HEPES, pH 7.4, or 135 mM CsCl, 2 MgCl2, 3 MgATP, 2 Na2ATP, 1 Na2GTP, 5 EGTA, 10 HEPES, pH 7.4. Upon insertion of the pipette tip into the bath, the series resistance is noted (acceptable range is between 1-4 megaohm). The junction potential between the pipette and bath solutions is zeroed on the amplifier. The cell is then patched, the patch broken, and, after compensation for series resistance (>=80%), the voltage protocol is applied while recording the whole cell Ca2+ current response. Voltage protocols: (1) −80 mV holding potential every 20 seconds pulse to −20 mV for 40 msec duration; the effectiveness of the drug in inhibiting the current mediated by the channel is measured directly from measuring the reduction in peak current amplitude initiated by the voltage shift from −80 mV to −20 mV; (2). −100 mV holding potential every 15 seconds pulse to −20 mV for 40 msec duration; the effectiveness of the drug in inhibiting the current mediated by the channel is measured directly from measuring the reduction in peak current amplitude initiated by the shift in potential from −100 mV to […]. The difference in block at the two holding potentials was used to determine the effect of drug at differing levels of inactivation induced by the level of resting state potential of the cells. After obtaining control baseline calcium currents, extracellular solutions containing increasing concentrations of a test compound are washed on. Once steady state inhibition at a given compound concentration is reached, a higher concentration of compound is applied. % inhibition of the peak inward control Ca2+ current during the depolarizing step to −20 mV is plotted as a function of compound concentration.

[2] = biological target: T2, Cav3.1 (T-type channel alpha-1G) (Homo sapiens, UniProt O43497); experiment: T-type calcium channel voltage-clamp assay, Cav3.1; details: read-out: Cav 3.1 IC50
T2 construct: expressed in transfected cells; host or cells: HEK 293
T2 sequence (O43497 whole entry): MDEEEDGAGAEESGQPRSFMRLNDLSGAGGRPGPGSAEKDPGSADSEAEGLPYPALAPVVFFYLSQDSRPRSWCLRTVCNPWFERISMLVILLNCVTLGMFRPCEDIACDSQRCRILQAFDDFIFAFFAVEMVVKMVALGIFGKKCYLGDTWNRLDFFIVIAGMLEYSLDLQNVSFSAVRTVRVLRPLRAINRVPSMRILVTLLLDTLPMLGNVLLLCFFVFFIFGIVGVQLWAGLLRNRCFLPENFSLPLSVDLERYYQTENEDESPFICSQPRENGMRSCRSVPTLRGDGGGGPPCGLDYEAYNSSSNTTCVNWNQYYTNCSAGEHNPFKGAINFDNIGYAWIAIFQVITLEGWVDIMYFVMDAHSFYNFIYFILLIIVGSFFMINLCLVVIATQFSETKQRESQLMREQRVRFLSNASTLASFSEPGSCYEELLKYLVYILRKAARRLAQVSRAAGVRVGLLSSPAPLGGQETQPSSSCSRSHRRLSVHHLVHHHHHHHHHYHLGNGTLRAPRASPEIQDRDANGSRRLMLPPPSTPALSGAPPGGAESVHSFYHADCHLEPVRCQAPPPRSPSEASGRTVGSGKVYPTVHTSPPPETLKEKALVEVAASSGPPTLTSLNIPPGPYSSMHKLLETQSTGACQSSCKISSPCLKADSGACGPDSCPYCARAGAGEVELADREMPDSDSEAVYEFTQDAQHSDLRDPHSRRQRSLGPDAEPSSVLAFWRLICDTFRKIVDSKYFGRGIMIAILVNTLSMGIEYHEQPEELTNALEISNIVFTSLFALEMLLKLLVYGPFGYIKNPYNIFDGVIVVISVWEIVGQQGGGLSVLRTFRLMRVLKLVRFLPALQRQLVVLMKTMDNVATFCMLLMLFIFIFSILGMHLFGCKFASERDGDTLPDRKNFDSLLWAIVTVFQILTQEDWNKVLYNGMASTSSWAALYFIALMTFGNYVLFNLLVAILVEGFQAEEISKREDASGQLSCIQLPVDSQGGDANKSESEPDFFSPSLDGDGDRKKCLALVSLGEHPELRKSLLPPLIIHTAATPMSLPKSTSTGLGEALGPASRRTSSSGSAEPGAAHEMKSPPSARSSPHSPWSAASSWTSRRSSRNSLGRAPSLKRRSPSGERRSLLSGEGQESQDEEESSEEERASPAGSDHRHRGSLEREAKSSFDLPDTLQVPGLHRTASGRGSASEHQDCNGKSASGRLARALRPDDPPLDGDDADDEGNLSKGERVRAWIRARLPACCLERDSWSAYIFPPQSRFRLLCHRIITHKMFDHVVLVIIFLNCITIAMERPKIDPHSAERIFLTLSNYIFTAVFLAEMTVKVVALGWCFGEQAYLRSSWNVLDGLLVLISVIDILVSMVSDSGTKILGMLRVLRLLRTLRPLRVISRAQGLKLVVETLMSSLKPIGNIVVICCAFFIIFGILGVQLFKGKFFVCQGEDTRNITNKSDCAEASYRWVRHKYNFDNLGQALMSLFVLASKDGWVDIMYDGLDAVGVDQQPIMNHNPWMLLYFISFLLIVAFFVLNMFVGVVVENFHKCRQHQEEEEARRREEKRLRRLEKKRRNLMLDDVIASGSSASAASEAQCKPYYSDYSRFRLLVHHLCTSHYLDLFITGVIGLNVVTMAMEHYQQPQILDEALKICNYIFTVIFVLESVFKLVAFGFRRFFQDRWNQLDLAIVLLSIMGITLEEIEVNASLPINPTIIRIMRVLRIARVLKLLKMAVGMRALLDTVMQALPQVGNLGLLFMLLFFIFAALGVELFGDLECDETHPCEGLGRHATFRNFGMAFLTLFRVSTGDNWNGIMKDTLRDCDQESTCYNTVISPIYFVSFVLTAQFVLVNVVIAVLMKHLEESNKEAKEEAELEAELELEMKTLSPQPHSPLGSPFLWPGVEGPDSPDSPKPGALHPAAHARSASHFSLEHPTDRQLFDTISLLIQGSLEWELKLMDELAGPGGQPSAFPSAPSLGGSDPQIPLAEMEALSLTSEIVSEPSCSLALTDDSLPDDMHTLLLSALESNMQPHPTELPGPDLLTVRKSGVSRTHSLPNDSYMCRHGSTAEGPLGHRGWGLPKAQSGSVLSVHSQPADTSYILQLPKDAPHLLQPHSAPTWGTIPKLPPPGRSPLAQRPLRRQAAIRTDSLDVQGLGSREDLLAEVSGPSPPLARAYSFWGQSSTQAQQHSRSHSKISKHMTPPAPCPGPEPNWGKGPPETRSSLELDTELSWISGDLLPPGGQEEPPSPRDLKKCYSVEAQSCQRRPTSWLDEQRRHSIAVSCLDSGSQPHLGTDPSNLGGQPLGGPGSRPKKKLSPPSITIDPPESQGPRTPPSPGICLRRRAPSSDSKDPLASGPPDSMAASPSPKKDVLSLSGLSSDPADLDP
Experimental: as §1, §2

Human Cav2.2 channels = biological target: T3, Human Cav2.2 channels (Homo sapiens, UniProt Q00975); experiment: Block of Cav2.2 (N-type) channels expressed in HEK293 cells; details: for inhibition at 10 µM / inhibition at 30 µM: HEK293; for inhibition at 10 µM: read-out: Cav 2.2 % Inh @ 10 μM; for inhibition at 30 µM: read-out: Cav 2.2 % Inh @ 30 μM; for pIC50: read-out: Cav 2.2 IC50
T3 construct: expressed in transfected cells
Excerpt: Human Cav2.2 channels were stably expressed in HEK293 cells along with alpha2-delta and beta subunits of voltage-gated calcium channels. An inwardly rectifying potassium channel (Kir2.3) was also expressed in these cells to allow more precise control of the cell membrane potential by extracellular potassium concentration. At low bath potassium concentration, the membrane potential is relatively negative, and is depolarized as the bath potassium concentration is raised. In this way, the bath potassium concentration can be used to regulate the voltage-dependent conformations of the channels. Compounds are incubated with cells in the presence of low (4 mM) potassium or elevated (12, 25 or 30 mM) potassium to determine the affinity for compound block of resting (closed) channels at 4 mM potassium or affinity for block of open and inactivated channels at 12, 25 or 30 mM potassium. After the incubation period, Cav2.2 channel opening is triggered by addition of higher concentration of potassium (70 mM final concentration) to further depolarize the cell. The degree of state-dependent block can be estimated from the inhibitory potency of compounds after incubation in different potassium concentrations.
Calcium influx through Cav2.2 channels is determined using a calcium sensitive fluorescent dye in combination with a fluorescent plate reader. Fluorescent changes were measured with either a VIPR (Aurora Instruments) or FLIPR (Molecular Devices) plate reader.
Protocol • 1. Seed cells in Poly-D-Lysine Coated 96 or 384-well plate and keep in a 37° C.-10% CO2 incubator overnight • 2. Remove media, wash cells with 0.2 mL (96-well plate) or 0.05 mL (384-well plate) Dulbecco's Phosphate Buffered Saline (D-PBS) with calcium & magnesium (Invitrogen; 14040) • 3. Add 0.1 mL (96-well plate) or 0.05 mL (384-well plate) of 4 μM fluor-4 (Molecular Probes; F-14202) and 0.02% Pluronic acid (Molecular Probes; P-3000) prepared in D-PBS with calcium & magnesium (Invitrogen; 14040) supplemented with 10 mM Glucose & 10 mM Hepes/NaOH; pH 7.4 • 4. Incubate in the dark at 25° C. for 60-70 min • 5. Remove dye, wash cells with 0.1 mL (96-well plate) or 0.06 mL (384-well plate) of 4, 12, 25, or 30 mM Potassium Pre-polarization Buffer (PPB) • 6. Add 0.1 mL (96-well plate) or 0.03 mL (384-well plate) of 4, 12, 25, 30 mM PPB with or without test compound • 7. Incubate in the dark at 25° C. for 30 min • 8. Read cell plate on VIPR instrument, Excitation=480 nm, Emission=535 nm • 9. With VIPR continuously reading, add 0.1 mL (96-well plate) or 0.03 mL (384-well plate) of Depolarization Buffer (DB), which is 2× the final assay concentration, to the cell plate.
Block of N-type calcium channels is evaluated utilizing the IonWorks HT 384 well automated patch clamp electrophysiology device. This instrument allows synchronous recording from 384 well (48 at a time). A single whole cell recording is made in each well. Whole cell recording is established by perfusion of the internal compartment with amphotericin B.
The voltage protocol is designed to detect use-dependent block. A 2 Hz train of depolarizations (twenty 25 ms steps to +20 mV). The experimental sequence consists of a control train (pre-compound), incubation of cells with compound for 5 minutes, followed by a second train (post-compound). Use dependent block by compounds is estimated by comparing fractional block of the first pulse in the train to block of the 20th pulse.
Parallel patch clamp electrophysiology is performed using IonWorks HT (Molecular Devices Corp) essentially as described by Kiss and colleagues (Kiss et al. 2003; Assay and Drug Development Technologies, 1:127-135). Briefly, a stable HEK 293 cell line (referred to as CBK) expressing the N-type calcium channel subunits (α1B, α2δ, β3a) and an inwardly rectifying potassium channel (Kir2.3) is used to record barium current through the N-type calcium channel. Cells are grown in T75 culture plates to 60-90% confluence before use. […]

T1 sequence (O95180 whole entry): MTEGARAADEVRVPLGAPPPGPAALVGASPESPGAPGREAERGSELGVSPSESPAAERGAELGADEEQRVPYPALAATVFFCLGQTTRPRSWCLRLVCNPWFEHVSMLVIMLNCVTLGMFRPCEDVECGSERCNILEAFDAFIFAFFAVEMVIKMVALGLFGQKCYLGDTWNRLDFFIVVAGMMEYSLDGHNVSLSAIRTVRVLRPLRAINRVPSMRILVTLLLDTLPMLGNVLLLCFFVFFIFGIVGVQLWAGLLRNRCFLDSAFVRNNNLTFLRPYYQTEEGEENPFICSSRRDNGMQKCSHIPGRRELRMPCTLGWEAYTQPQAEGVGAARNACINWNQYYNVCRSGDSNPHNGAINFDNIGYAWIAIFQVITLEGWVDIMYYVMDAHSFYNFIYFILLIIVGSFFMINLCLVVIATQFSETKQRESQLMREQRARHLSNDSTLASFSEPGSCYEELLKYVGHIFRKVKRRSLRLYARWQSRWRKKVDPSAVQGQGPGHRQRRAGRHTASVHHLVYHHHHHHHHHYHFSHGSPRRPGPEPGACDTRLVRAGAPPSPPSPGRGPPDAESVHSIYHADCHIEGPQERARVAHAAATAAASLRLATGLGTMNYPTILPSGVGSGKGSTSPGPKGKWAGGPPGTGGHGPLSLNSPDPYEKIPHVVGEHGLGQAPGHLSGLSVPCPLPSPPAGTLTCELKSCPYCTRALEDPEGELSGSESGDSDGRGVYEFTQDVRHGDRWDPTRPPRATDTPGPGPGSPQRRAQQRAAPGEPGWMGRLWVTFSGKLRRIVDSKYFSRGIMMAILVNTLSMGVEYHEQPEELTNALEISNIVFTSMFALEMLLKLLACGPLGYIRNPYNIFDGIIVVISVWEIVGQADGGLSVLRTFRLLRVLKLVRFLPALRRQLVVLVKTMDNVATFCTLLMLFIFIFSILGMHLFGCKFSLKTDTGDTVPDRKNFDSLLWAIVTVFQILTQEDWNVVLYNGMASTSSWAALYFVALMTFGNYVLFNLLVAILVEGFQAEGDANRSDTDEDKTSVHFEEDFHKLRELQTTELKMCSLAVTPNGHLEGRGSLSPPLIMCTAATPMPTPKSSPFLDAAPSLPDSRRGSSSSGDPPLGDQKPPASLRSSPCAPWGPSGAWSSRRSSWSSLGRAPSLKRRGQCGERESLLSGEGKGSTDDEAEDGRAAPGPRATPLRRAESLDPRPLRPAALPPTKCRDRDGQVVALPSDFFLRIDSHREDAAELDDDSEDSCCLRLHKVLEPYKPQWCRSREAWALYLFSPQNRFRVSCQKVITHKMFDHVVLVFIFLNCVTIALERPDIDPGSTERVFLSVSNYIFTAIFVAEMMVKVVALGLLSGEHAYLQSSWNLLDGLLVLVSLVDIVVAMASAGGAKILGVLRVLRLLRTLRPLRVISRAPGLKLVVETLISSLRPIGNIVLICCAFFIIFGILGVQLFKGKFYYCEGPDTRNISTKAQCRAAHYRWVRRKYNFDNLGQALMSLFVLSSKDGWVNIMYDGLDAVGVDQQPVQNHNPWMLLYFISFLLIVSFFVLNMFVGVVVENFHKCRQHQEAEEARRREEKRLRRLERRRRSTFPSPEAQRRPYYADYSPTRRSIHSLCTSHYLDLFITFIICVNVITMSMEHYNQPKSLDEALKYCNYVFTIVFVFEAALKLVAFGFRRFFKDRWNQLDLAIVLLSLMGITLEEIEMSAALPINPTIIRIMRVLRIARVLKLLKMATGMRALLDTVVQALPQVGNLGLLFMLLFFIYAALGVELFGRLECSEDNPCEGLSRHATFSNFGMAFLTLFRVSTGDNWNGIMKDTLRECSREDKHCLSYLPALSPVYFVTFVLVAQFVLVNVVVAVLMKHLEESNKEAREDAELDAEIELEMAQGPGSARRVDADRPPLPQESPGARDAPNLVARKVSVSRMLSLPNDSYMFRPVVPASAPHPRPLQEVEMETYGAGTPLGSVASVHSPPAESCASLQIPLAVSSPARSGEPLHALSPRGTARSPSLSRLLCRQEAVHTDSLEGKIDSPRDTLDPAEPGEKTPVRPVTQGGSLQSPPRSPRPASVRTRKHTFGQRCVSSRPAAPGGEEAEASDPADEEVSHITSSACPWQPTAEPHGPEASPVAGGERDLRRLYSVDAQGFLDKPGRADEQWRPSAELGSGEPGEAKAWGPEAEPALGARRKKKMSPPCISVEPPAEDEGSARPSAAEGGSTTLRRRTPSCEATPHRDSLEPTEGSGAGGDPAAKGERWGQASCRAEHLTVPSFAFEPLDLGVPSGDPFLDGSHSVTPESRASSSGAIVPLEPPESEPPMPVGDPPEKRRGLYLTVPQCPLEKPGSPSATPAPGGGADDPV

Cc1cc(C(=O)N2CCN(c3cc(C(C)(C)C)cc(C(C)(C)C)c3)CC2)n(C(C)(C)C)n1 [Compound 10, (1-tert-butyl-3-methyl-1H-pyrazol-5-yl)(4-(3,5-di-tert-butylphenyl)piperazin-1-yl)methanone]
pIC50 [1]: 5.88 | pIC50 [2]: 5.97 | inhibition at 10 µM (Human Cav2.2 channels): 96% | inhibition at 30 µM (Human Cav2.2 channels): 104% | pIC50 (Human Cav2.2 channels): 6.43

CC(C)(C)C(=O)Nc1ncccc1C(=O)N1CCN(c2cc(C(C)(C)C)cc(C(C)(C)C)c2)CC1 [Compound 8, N-(3-(4-(3,5-di-tert-butylphenyl)piperazine-1-carbonyl)pyridin-2-yl)pivalamide]
pIC50 [1]: 6.15 | pIC50 [2]: 6.26 | inhibition at 10 µM (Human Cav2.2 channels): 94% | inhibition at 30 µM (Human Cav2.2 channels): 95% | pIC50 (Human Cav2.2 channels): 6.19

Cc1ccc(C(=O)N2CCN(c3cc(C(C)(C)C)cc(C(C)(C)C)c3)CC2)s1 [Compound 28, (4-(3,5-di-tert-butylphenyl)piperazin-1-yl)(5-methylthiophen-2-yl)methanone]
pIC50 [1]: 6.02 | pIC50 [2]: 6.10 | inhibition at 10 µM (Human Cav2.2 channels): 87% | inhibition at 30 µM (Human Cav2.2 channels): 101% | pIC50 (Human Cav2.2 channels): 5.62

CCSc1ncccc1C(=O)N1CCN(c2cc(C(C)(C)C)cc(C(C)(C)C)c2)CC1 [Compound 45, (4-(3,5-di-tert-butylphenyl)piperazin-1-yl)(2-(ethylthio)pyridin-3-yl)methanone]
pIC50 [1]: 5.74 | pIC50 [2]: 6.02 | inhibition at 10 µM (Human Cav2.2 channels): 97% | inhibition at 30 µM (Human Cav2.2 channels): 101% | pIC50 (Human Cav2.2 channels): 5.97

Cc1nc(C(F)(F)F)c(C(=O)N2CCN(c3cc(C(C)(C)C)cc(C(C)(C)C)c3)CC2)s1 [Compound 41, (4-(3,5-di-tert-butylphenyl)piperazin-1-yl)(2-methyl-4-(trifluoromethyl)thiazol-5-yl)methanone]
pIC50 [1]: 5.85 | pIC50 [2]: 5.82 | inhibition at 10 µM (Human Cav2.2 channels): 102% | inhibition at 30 µM (Human Cav2.2 channels): 107% | pIC50 (Human Cav2.2 channels): 6.08

Cc1nc(C(F)(F)F)ccc1C(=O)N1CCN(c2cc(C(C)(C)C)cc(C(C)(C)C)c2)CC1 [Compound 30, (4-(3,5-di-tert-butylphenyl)piperazin-1-yl)(2-methyl-6-(trifluoromethyl)pyridin-3-yl)methanone]
pIC50 [1]: 5.94 | pIC50 [2]: 6.01 | inhibition at 10 µM (Human Cav2.2 channels): 91% | inhibition at 30 µM (Human Cav2.2 channels): 100% | pIC50 (Human Cav2.2 channels): 5.89

CC(C)(C)C(=O)Nc1cc(C(=O)N2CCN(c3cc(C(C)(C)C)cc(C(C)(C)C)c3)CC2)ccn1 [Compound 22, N-(4-(4-(3,5-di-tert-butylphenyl)piperazine-1-carbonyl)pyridin-2-yl)pivalamide]
pIC50 [1]: 7.15 | pIC50 [2]: 7.30 | inhibition at 10 µM (Human Cav2.2 channels): 99% | inhibition at 30 µM (Human Cav2.2 channels): 103% | pIC50 (Human Cav2.2 channels): 6.00

CC(C)c1cc(C(=O)N2CCN(c3cc(C(C)(C)C)cc(C(C)(C)C)c3)CC2)cs1 [Compound 23, (4-(3,5-di-tert-butylphenyl)piperazin-1-yl)(5-isopropylthiophen-3-yl)methanone]
pIC50 [1]: 6.06 | pIC50 [2]: 6.10 | inhibition at 10 µM (Human Cav2.2 channels): 90% | inhibition at 30 µM (Human Cav2.2 channels): 97% | pIC50 (Human Cav2.2 channels): 5.85

Cc1cccc(C(=O)N2CCN(c3cc(C(C)(C)C)cc(C(C)(C)C)c3)CC2)n1 [Compound 49, (4-(3,5-di-tert-butylphenyl)piperazin-1-yl)(6-methylpyridin-2-yl)methanone]
pIC50 [1]: 5.73 | pIC50 [2]: 5.82 | inhibition at 10 µM (Human Cav2.2 channels): 102% | inhibition at 30 µM (Human Cav2.2 channels): 105% | pIC50 (Human Cav2.2 channels): 5.78

Cc1ccsc1C(=O)N1CCN(c2cc(C(C)(C)C)cc(C(C)(C)C)c2)CC1 [Compound 29, (4-(3,5-di-tert-butylphenyl)piperazin-1-yl)(3-methylthiophen-2-yl)methanone]
pIC50 [1]: 6.00 | pIC50 [2]: 6.08 | inhibition at 10 µM (Human Cav2.2 channels): 88% | inhibition at 30 µM (Human Cav2.2 channels): 101% | pIC50 (Human Cav2.2 channels): 5.70

CC(C)(C)c1cc(N2CCN(C(=O)c3ccc(F)c(C(F)(F)F)c3)CC2)cc(C(C)(C)C)c1 [Compound 16, (4-(3,5-di-tert-butylphenyl)piperazin-1-yl)(4-fluoro-3-(trifluoromethyl)phenyl)methanone]
pIC50 [1]: 6.16 | pIC50 [2]: 6.17 | inhibition at 10 µM (Human Cav2.2 channels): 96% | inhibition at 30 µM (Human Cav2.2 channels): 90% | pIC50 (Human Cav2.2 channels): 5.84
